In this assay the test system is H4-IIE rat hepatoma cell line (TAT induction). The experiment in a line: Antiglucocorticoid effect: inhibition of dexamethasone-induced TAT in rat hepatoma cells. It is filed as cell-based. The conditions noted are these: hepatomatous cells of rats; 10^-8 M dexamethasone. From the text: FIG. 3. is a graph showing the antiglucocorticoid effect of J 867 (Example 1) in comparison to RU 486. The graph depicts the inhibition of TAT induction in a rat hepatoma cell line (the H4-IIE cell line) which were induced by 10^-8 M dexamethasone. The graph indicates the log molar antagonist concentration in the x-axis versus the maximum TAT induction as a percentage in the y-axis. The results for dexamethasone is shown as dashed lines (- - -), the IC50 is shown in solid line (----), RU 486 is shown as open boxes (.quadrature.), and J 867 is shown with closed boxes (.box-solid.).
FIG. 3 compares the antiglucocorticoid effect of J 867 and RU 486 on hepatomatous cells of rats using the TAT model.
In hepatomatous cells of rats, dexamethasone stimulates the tyrosine amino transferase enzyme (TAT). This effect is inhibited by antiglucocorticoid activity.
Antiglucocorticoid effect of J867 in hepatomatous cells of rats using the TAT model
The cell cultures were treated in DMEM under essentially the same conditions as in Example 14. The cells were spread over 24 well plates for the experiments. Substance was added to the confluent hepatomatous cells in 0.2% (v/v) ethanol for 16 hours. After the cells were carefully harvested using a scraper and a cell extract obtained using ultrasonic waves, TAT was determined according to Diamondstone.

Consider one compound from US5693628A, “11-benzaldoxime-estra-diene derivatives, methods for their production and pharmaceuticals containing these compounds” (priority 1994, dated 1997).

Structures are written as SMILES.

Turning to `COC[C@]1(OC)CC[C@H]2[C@@H]3CCC4=CC(=O)CCC4=C3[C@@H](c3ccc(C=NO)cc3)C[C@@]21C` [Example 1, 11β-[4-(hydroximinomethyl)phenyl]-17β-methoxy-17α-methoxymethyl-estra-4,9-diene-3-on], the “antiglucocorticoid effect (TAT) compared with RU 486” value is listed as “clearly weaker antiglucocorticoid effect than RU 486”.
